Test results taken from PubChem BioAssay (NCI).
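How tested: cells in 96-well plates exposed to compound for 48 hours at five concentrations. Here, GI50 denotes the concentration required for 50% inhibition of growth. TGI: total growth inhibition.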

Experiments:
Assay in all cases: NCI anticancer screen, dose series, 48 h
OVCAR-3 ovarian = test system: OVCAR-3 ovarian
PC-3 prostate = test system: PC-3 prostate
K-562 leukemia = test system: K-562 leukemia
T-47D breast = test system: T-47D breast
DU-145 prostate = test system: DU-145 prostate
NCI/ADR-RES ovarian = test system: NCI/ADR-RES ovarian
COLO 205 colon = test system: COLO 205 colon
A549 NSCLC = test system: A549 NSCLC
MDA-MB-435 = test system: MDA-MB-435
RPMI-8226 leukemia = test system: RPMI-8226 leukemia

Cc1cc(C)c2c(=O)cc(-c3ccc(F)cc3)[nH]c2n1
GI50 (OVCAR-3 ovarian): 43.5 µM
TGI (OVCAR-3 ovarian): > 100 µM
GI50 (PC-3 prostate): 30.1 µM
TGI (PC-3 prostate): > 100 µM
TGI (K-562 leukemia): > 100 µM
TGI (T-47D breast): > 100 µM
TGI (DU-145 prostate): > 100 µM
TGI (NCI/ADR-RES ovarian): > 100 µM
TGI (COLO 205 colon): > 100 µM
TGI (A549 NSCLC): > 100 µM
GI50 (MDA-MB-435): 18.6 µM
TGI (MDA-MB-435): 40.6 µM
TGI (RPMI-8226 leukemia): > 100 µM

OC1CCC(COC(c2ccccc2)(c2ccccc2)c2ccccc2)O1 (stereo not drawn)
TGI (OVCAR-3 ovarian): 32.4 µM
TGI (PC-3 prostate): 24.3 µM
TGI (K-562 leukemia): 41.1 µM
TGI (T-47D breast): 38.2 µM
TGI (DU-145 prostate): 38.3 µM
TGI (NCI/ADR-RES ovarian): 48.3 µM
TGI (COLO 205 colon): 30.8 µM
TGI (A549 NSCLC): 37 µM
TGI (MDA-MB-435): 39.9 µM
TGI (RPMI-8226 leukemia): 40.7 µM

N#C/C(=C\c1ccc([N+](=O)[O-])cc1)n1nnc2cc(F)c(F)cc21
GI50 (OVCAR-3 ovarian): 1.85 µM
TGI (OVCAR-3 ovarian): 3.58 µM
GI50 (PC-3 prostate): 1.72 µM
TGI (PC-3 prostate): 4 µM
GI50 (K-562 leukemia): 3.14 µM
TGI (K-562 leukemia): > 100 µM
GI50 (T-47D breast): 1.09 µM
TGI (T-47D breast): 2.74 µM
GI50 (DU-145 prostate): 1.72 µM
TGI (DU-145 prostate): 3.14 µM
GI50 (NCI/ADR-RES ovarian): 2.96 µM
TGI (NCI/ADR-RES ovarian): 11.6 µM
GI50 (COLO 205 colon): 1.89 µM
TGI (COLO 205 colon): 3.93 µM
GI50 (A549 NSCLC): 2.62 µM
TGI (A549 NSCLC): 9.04 µM
GI50 (MDA-MB-435): 2.32 µM
TGI (MDA-MB-435): 5.85 µM
GI50 (RPMI-8226 leukemia): 2.42 µM
TGI (RPMI-8226 leukemia): 6.67 µM

Fc1ccc(-c2nn3c(COc4ccccc4Cl)nnc3s2)cc1Oc1ccccc1
GI50 (OVCAR-3 ovarian): 22.5 µM
TGI (OVCAR-3 ovarian): 52.5 µM
GI50 (PC-3 prostate): 22.6 µM
TGI (PC-3 prostate): 73.8 µM
GI50 (K-562 leukemia): > 100 µM
TGI (K-562 leukemia): > 100 µM
GI50 (T-47D breast): 34.5 µM
TGI (T-47D breast): > 100 µM
GI50 (DU-145 prostate): 39 µM
TGI (DU-145 prostate): > 100 µM
GI50 (NCI/ADR-RES ovarian): 26.6 µM
TGI (NCI/ADR-RES ovarian): 76.5 µM
GI50 (COLO 205 colon): 46.4 µM
TGI (COLO 205 colon): > 100 µM
GI50 (A549 NSCLC): 40.2 µM
TGI (A549 NSCLC): > 100 µM
GI50 (MDA-MB-435): 33.2 µM
TGI (MDA-MB-435): > 100 µM
GI50 (RPMI-8226 leukemia): 51.1 µM
TGI (RPMI-8226 leukemia): > 100 µM

O=C1/C(=C\c2ccc(Cl)cc2)CN(C(=O)c2ccccc2)C/C1=C\c1ccc(Cl)cc1
GI50 (OVCAR-3 ovarian): 2.43 µM
TGI (OVCAR-3 ovarian): 5.49 µM
GI50 (PC-3 prostate): 2.57 µM
TGI (PC-3 prostate): 10.1 µM
GI50 (K-562 leukemia): 1.98 µM
TGI (K-562 leukemia): > 100 µM
GI50 (T-47D breast): 4.33 µM
TGI (T-47D breast): > 100 µM
GI50 (DU-145 prostate): 4.12 µM
TGI (DU-145 prostate): > 56.4 µM
GI50 (NCI/ADR-RES ovarian): 3.59 µM
TGI (NCI/ADR-RES ovarian): 19.7 µM
GI50 (COLO 205 colon): 3.45 µM
TGI (COLO 205 colon): 10.5 µM
GI50 (A549 NSCLC): 3.15 µM
TGI (A549 NSCLC): > 45.6 µM
GI50 (MDA-MB-435): 2.58 µM
TGI (MDA-MB-435): 8.04 µM
GI50 (RPMI-8226 leukemia): 0.274 µM
TGI (RPMI-8226 leukemia): 1.36 µM

CCOC(=O)Nc1ccc2c3c(cccc13)-c1ccccc1-2
GI50 (OVCAR-3 ovarian): 2.72 µM
TGI (OVCAR-3 ovarian): 8.92 µM
GI50 (PC-3 prostate): 9.45 µM
TGI (PC-3 prostate): > 100 µM
GI50 (K-562 leukemia): 4.12 µM
TGI (K-562 leukemia): > 100 µM
GI50 (T-47D breast): 2.57 µM
TGI (T-47D breast): > 100 µM
GI50 (DU-145 prostate): 7.56 µM
TGI (DU-145 prostate): > 100 µM
GI50 (NCI/ADR-RES ovarian): 4.32 µM
TGI (NCI/ADR-RES ovarian): > 100 µM
GI50 (COLO 205 colon): 4.25 µM
TGI (COLO 205 colon): > 100 µM
GI50 (A549 NSCLC): 6.03 µM
TGI (A549 NSCLC): > 100 µM
GI50 (MDA-MB-435): 0.862 µM
TGI (MDA-MB-435): 3.54 µM
GI50 (RPMI-8226 leukemia): 5.51 µM
TGI (RPMI-8226 leukemia): > 100 µM

CCOC(=O)Nc1nc(-c2ccccc2)c(C)s1
TGI (OVCAR-3 ovarian): > 100 µM
TGI (PC-3 prostate): > 100 µM
TGI (K-562 leukemia): > 100 µM
TGI (T-47D breast): > 100 µM
TGI (DU-145 prostate): > 100 µM
TGI (NCI/ADR-RES ovarian): > 100 µM
TGI (COLO 205 colon): > 100 µM
TGI (A549 NSCLC): > 100 µM
TGI (MDA-MB-435): > 100 µM
TGI (RPMI-8226 leukemia): > 100 µM
